# Reference: the supplement of paper PMC10307832
# What was measured:
# Assay in all cases: relative viability (nuclei count vs DMSO), 5 days (fraction); higher = more cells survive
# [1] = compound: C[C@@]1(C(=O)Nc2ccc(F)nc2)CCCN1c1nc(Nc2cc(C3CC3)n[nH]2)c2cccn2n1 + CC1(C)CCC(c2ccc(Cl)cc2)=C(CN2CCN(c3ccc(C(=O)NS(=O)(=O)c4ccc(N[C@H](CCN5CCOCC5)CSc5ccccc5)c(S(=O)(=O)C(F)(F)F)c4)cc3)CC2)C1 [Navitoclax] (partner 0.5 µM)
# In short: (§1)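 Relative viability was taken as the ratio of nuclei in treated wells to nuclei in vehicle wells. Lung cancer cell lines in 1536-well plates received compounds by pin tool one day after seeding, either one drug alone or a fixed anchor-drug dose plus five library-drug doses (not always all listed) in √10 steps. Nuclei were counted on 4× images after 5 days of treatment, and values are medians of duplicate plates.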
# [2] = compound: CC1(C)CNc2cc(NC(=O)c3cccnc3NCc3ccncc3)ccc21 [Motesanib] + N=C(N)NC(=N)NCCc1ccccc1 [Phenformin] (partner 250 µM)
# In short: as §1
# [3] = compound: CC1(C)CNc2cc(NC(=O)c3cccnc3NCc3ccncc3)ccc21 [Motesanib] + CC(=O)Nc1cccc(-n2c(=O)n(C3CC3)c(=O)c3c(Nc4ccc(I)cc4F)n(C)c(=O)c(C)c32)c1 [Trametinib] (partner 0.02 µM)
# In short: as §1
# [4] = compound: CC1(C)CNc2cc(NC(=O)c3cccnc3NCc3ccncc3)ccc21 [Motesanib] + Nc1ncn([C@H]2C[C@H](O)[C@@H](CO)O2)c(=O)n1 [Decitabine] (partner 2 µM)
# In short: as §1
Cell Line,relative viability ([1]; first compound 0.04 µM),relative viability ([1]; first compound 0.1265 µM),relative viability ([1]; first compound 0.4 µM),relative viability ([1]; first compound 1.265 µM),relative viability ([2]; first compound 0.01 µM),relative viability ([2]; first compound 0.03162 µM),relative viability ([2]; first compound 0.1 µM),relative viability ([2]; first compound 0.3162 µM),relative viability ([2]; first compound 1 µM),relative viability ([3]; first compound 0.01 µM),relative viability ([3]; first compound 0.03162 µM),relative viability ([3]; first compound 0.1 µM),relative viability ([3]; first compound 0.3162 µM),relative viability ([3]; first compound 1 µM),relative viability ([4]; first compound 0.01 µM),relative viability ([4]; first compound 0.03162 µM),relative viability ([4]; first compound 0.1 µM),relative viability ([4]; first compound 0.3162 µM),relative viability ([4]; first compound 1 µM)
NCI-H2347,0.777,0.544,0.661,0.846,0.419,0.45,0.372,0.502,0.466,0.264,0.3,0.292,0.245,0.278,0.667,0.578,0.701,0.642,0.674
NCI-H1993,0.692,–,0.671,0.716,0.489,0.501,0.516,0.564,0.451,0.598,0.566,0.49,0.718,0.5,0.598,0.568,0.609,0.657,0.659
NCI-H322M,1.27,1,1.07,1.19,0.748,0.823,0.806,0.798,0.791,0.471,0.558,0.554,0.527,0.545,0.688,0.672,0.707,0.685,0.777
NCI-H838,1.21,1.01,0.948,1.1,0.547,0.667,0.514,0.745,0.656,0.494,0.568,0.507,0.544,0.529,0.484,0.49,0.541,0.572,0.582
HARA,1.16,1.18,1.17,1.16,0.479,0.433,0.435,0.431,0.359,0.649,0.454,0.598,0.918,0.441,0.492,0.878,0.905,1.06,1.05
NCI-H2087,0.882,0.969,0.854,0.931,0.475,0.411,0.575,0.489,0.484,–,–,0.199,0.182,0.182,–,–,0.343,0.259,0.367
NCI-H1437,1.04,0.828,0.739,0.919,0.287,0.282,0.282,0.316,0.305,0.587,0.471,0.529,0.492,0.518,0.596,0.544,0.58,0.548,0.629
